Consider three compounds from US20220213052A1, “INHIBITORS OF RNA-BINDING PROTEINS, COMPOSITIONS THEREOF, AND THERAPEUTIC USES THEROF” (The University of North Carolina at Chapel Hill, priority 2019, published 2022).

In general, Ki refers to a dissociation constant, usually derived from enzyme kinetics or from competition with a known ligand. As a reminder, the IC50 is the concentration that gives 50% inhibition.

In assay [1] the target is T1, full-length human HuR protein (Homo sapiens, UniProt Q15717).
T1 construct: full-length human HuR protein was produced by the KU COBRE-PSF Protein Purification Group; made in house
T1 sequence (Q15717 whole entry): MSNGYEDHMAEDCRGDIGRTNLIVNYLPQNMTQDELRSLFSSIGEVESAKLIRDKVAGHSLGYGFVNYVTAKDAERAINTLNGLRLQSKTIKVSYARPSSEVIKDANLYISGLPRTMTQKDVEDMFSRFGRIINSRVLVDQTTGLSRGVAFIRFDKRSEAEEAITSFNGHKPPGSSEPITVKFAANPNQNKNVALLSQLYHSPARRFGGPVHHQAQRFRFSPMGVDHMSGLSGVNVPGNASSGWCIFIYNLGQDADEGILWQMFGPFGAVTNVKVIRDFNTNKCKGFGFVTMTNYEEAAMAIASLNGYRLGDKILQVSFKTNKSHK
Briefly: FP assay of HuR-Msi1 ARE binding inhibition. Particulars: HuR-Msi1 ARE interaction; read-out: HuR Ki via FP assay. The essentials:
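Fluorescence polarization competition using full-length human HuR protein and a 3′-fluorescein-labelled 16-nt Msi1 ARE RNA. A fluorescein-labelled degenerate 16-nt RNA served as negative control.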

Assay [2] has as its system pancreatic cancer cell line MIAPaCa-2. The experiment in a line: Cytotoxicity assay (WST-8), MIAPaCa-2. The class given is cell-based. Particulars: Homo sapiens, MIA PaCa-2, 96 h incubation. The procedure: (§1) The cytotoxicity of various compounds of the present technology in several cancer cell lines (pancreatic cancer cell line MIAPaCa-2, triple-negative breast cancer cell line MDA-MB-231, and colon cancer cell lines HCT116, HCT116 β/W, and RKO) was assessed by a cytotoxicity assay. Cells were seeded in 96-well culture plates (3,000-5,000 cells/well) and treated with titrated compounds in triplicate. After 96 h incubation, cell growth medium was removed and proliferation reagent WST-8 (Sigma) was added to each well and incubated at 37° C. for 1-3 h. Absorbance was then measured with a plate reader at 450 nm with correction at 650 nm. The results were expressed as the percentage of absorbance of treated wells versus that of vehicle control. IC50, the drug concentration causing 50% growth inhibition, was calculated via sigmoid curve fitting using GraphPad Prism 5.0. The results for those compounds tested against MIAPaCa-2 and MDA-MB-231 are provided in Table 1; the results for those compounds tested against colon cancer cell lines HCT116, HCT116 β/W, and RKO are provided in Table 3.
On the technique in general: Tetrazolium assays rely on reduction of a dye to a coloured formazan, in cell work by metabolically active cells.

The test system of assay [3] is triple-negative breast cancer cell line MDA-MB-231. The experiment in a line: Cytotoxicity assay (WST-8), MDA-MB-231. Particulars: Homo sapiens, 96 h incubation. The class given is cell-based. The essentials: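 Cells (3,000-5,000/well) were treated in triplicate with titrated compounds for 96 h, then WST-8 was added for 1-3 h at 37° C and absorbance read at 450 nm (650 nm correction). IC50 (50% growth inhibition vs vehicle) came from sigmoid curve fitting.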

A further assay has as its target Msi1 (Homo sapiens, UniProt O43347). Briefly: Msi1 FP assay. The class given is binding.
A further assay deals with Musashi 2 (Msi2) (Homo sapiens, UniProt Q96DH6). Briefly: Msi2 FP assay. The class given is binding. Particulars: cell marked (RRM1), read-out: Msi2 (Ki) (RRM1).
Musashi 2 (Msi2), sequence (Q96DH6 whole entry, species assumed): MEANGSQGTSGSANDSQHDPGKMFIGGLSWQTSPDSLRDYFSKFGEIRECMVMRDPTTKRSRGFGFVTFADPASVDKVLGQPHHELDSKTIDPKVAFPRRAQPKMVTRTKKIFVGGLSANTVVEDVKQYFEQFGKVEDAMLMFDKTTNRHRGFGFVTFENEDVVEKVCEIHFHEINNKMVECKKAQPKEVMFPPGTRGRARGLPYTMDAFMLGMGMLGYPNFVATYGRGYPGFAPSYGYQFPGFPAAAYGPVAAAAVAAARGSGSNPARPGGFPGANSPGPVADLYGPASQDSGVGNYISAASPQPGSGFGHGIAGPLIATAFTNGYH
The target of assay [4] is T2, RNA-binding protein Lin-28 homolog B (LIN28B) (Homo sapiens, UniProt Q6ZN17).
T2 sequence (Q6ZN17 1-250): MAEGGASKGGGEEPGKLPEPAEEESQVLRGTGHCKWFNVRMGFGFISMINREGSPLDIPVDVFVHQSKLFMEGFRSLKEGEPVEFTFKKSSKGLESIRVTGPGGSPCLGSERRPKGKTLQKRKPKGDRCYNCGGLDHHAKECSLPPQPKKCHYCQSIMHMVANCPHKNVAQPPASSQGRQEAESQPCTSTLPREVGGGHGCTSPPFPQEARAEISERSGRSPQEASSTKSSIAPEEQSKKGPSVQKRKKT
Briefly: LIN28B FP assay.

The subject of assay [5] is colon cancer cell line HCT116. Briefly: Cytotoxicity assay (WST-8), HCT116. The class given is cell-based. Particulars: Homo sapiens, HCT-116, 96 h incubation. The procedure: as §1
Assay [6] deals with colon cancer cell line HCT116 β/W. Briefly: Cytotoxicity assay (WST-8), HCT116 β/W. The class given is cell-based. Particulars: Homo sapiens, HCT-116, 96 h incubation. How it is done: as §1
In assay [7] the test system is colon cancer cell line RKO. The experiment in a line: Cytotoxicity assay (WST-8), RKO. The class given is cell-based. Particulars: 96 h incubation. How it is done: as §1
Assay [8] relates to colon cancer cell line SW480. The experiment in a line: Cytotoxicity assay (WST-8), SW480. The class given is cell-based. Particulars: Homo sapiens, 96 h incubation.
The subject of assay [9] is HuR targets in MDA-MB-231 cells. Briefly: Western blot analysis of HuR targets and cell death markers. The class given is cell-based. From the text:
As HuR promotes stability of its target mRNAs, it is expected that HuR-inhibitors will block HuR function and shorten the half-life (t1/2) of target mRNAs. mRNA stability will be determined via quantitative real-time PCR (qRT-PCR) after co-treatment of compounds of the present technology and Actinomycin D (a transcription inhibitor). Because HuR also increases the translation of target mRNAs, the effect of compounds of the present technology on protein levels of HuR targets was probed by Western blot analysis.
A general note: Immunoblotting shows a protein as a band on a membrane.

The next assay has as its system MDA-MB-231 cells. The experiment in a line: Matrigel invasion assay. The class given is cell-based. Particulars: 24 h pretreatment, 20 h incubation. The procedure:
To examine the anti-metastatic effect of compounds of the present technology, an invasion assay using Matrigel Invasion Chambers coated with Matrigel Matrix was performed. To perform the assays, MDA-MB-231 cells pretreated with compounds for 24 hours are added to the chambers and then incubated for 20 hours. Cells that remained on the upper surface of the chamber are completely removed with a cotton swab. Cells that emigrated or invaded through the membrane/Matrigel to the bottom of the chamber were fixed and stained with 0.2% crystal violet and photographed.

Assay [10] relates to MDA-MB-231 HuR knockout clones (HuR KO1 and HuR KO2). Briefly: Cytotoxicity against HuR knockout clones of MDA-MB-231. Particulars: HuR KO1 and HuR KO2 vs MDA-MB-231 and sgControl. The class given is cell-based. The procedure: as §1
The cytotoxicity of KH-39 and KH-58 against HuR knockout clones was probed by the same assay as described above. […]

The target in assay [11] is T3, HuR protein bound to ARE^Msi1-Biotin (Homo sapiens, UniProt Q15717).
T3 construct: endogenous in cells; cytoplasmic lysate
T3 sequence (Q15717 2-326 limits assumed): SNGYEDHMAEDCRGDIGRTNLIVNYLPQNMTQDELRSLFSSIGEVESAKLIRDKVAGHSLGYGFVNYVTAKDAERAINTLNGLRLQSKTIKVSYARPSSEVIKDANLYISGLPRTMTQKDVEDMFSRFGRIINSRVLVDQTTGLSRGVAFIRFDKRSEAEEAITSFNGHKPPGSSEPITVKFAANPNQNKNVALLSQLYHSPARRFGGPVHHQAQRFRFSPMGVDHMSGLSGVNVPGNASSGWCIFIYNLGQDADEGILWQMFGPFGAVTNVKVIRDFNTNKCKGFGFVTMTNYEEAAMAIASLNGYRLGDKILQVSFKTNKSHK
The experiment in a line: RNA immunoprecipitation (RNA-IP) pull-down assay. Particulars: 10 μM. The class given is cell-based. How it is done:
Pull-down Assay #1—RNA Immunoprecipitation (RNA-IP): Cells with HuR overexpression will be treated with compounds, then the cell cytoplasmic lysates were collected using NE-PER Nuclear and Cytoplasmic Extraction Kit (Thermo Scientific), and subsequently to the cell cytoplasmic lysates were added the biotinylated target ARE oligo from Msi1 mRNA (ARE^Msi1-Biotin). Following this, streptavidin beads were added to pull down HuR protein bound to ARE^Msi1-Biotin. Unlabeled target AREs used as positive control. Compounds of the present technology block the HuR pull-down by the biotinylated ARE oligo, illustrating inhibition of the HuR-mRNA interaction. For example, using 20 μM KH-39, 20 μM KH-56, and 10 μM KH-58 in such a RNA-IP assay provided the data illustrated in FIG. 5. The numbers immediately below the pictured bands in FIG. 5 are calculated by diving the band intensity of the particular sample by the band intensity of the DMSO treated sample (entry 3). […]

Assay [12] concerns the target T4, HuR-bound target mRNAs in MDA-MB-231 cells (Homo sapiens, UniProt Q15717).
T4 construct: endogenous in cells; host or cells: MDA-MB-231
The experiment in a line: Ribonucleoprotein immunoprecipitation (RNP-IP) pull-down assay. Particulars: 5 μM. The class given is cell-based. How it is done: Pull-down Assay #2—Ribonuleoprotein Immunoprecipitation (RNP-IP): Cells with HuR overexpression were treated with compounds, then the cell cytoplasmic lysates collected using NE-PER Nuclear and Cytoplasmic Extraction Kit (Thermo Scientific), then the cell cytoplasmic lysates incubated with anti-HuR antibody, and subsequently Protein G agarose beads (from Roche) added to pull down HuR protein. The HuR-bound target mRNAs pulled down were measured by qRT-PCR using a reported method (Ji, Q., et al., MicroRNA miR-34 inhibits human pancreatic cancer tumor-initiating cells. PLoS One, 2009. 4(8): p. e6816, incorporated herein by reference). Mouse IgG will be used as negative control. Compounds of the present technology block the target mRNAs pulled down by HuR antibody.

In assay [13] the test system is MDA-MB-231 mouse xenograft. Briefly: MDA-MB-231 mouse xenograft model, KH-39 alone and with docetaxel. Particulars: after three-week treatment; KH-39 i.p. 50 mg/kg 5 times per week; TXT i.v.; ***P<0.001, ****P<0.0001, n=12. The class given is in vivo, mice. The text has this: Cytotoxicity assays (as described earlier in this disclosure) for various cancer cell lines will also be performed utilizing concentrations of a compound of the present technology that are below the lethal threshold for the compound for the particular cancer (a “sub-lethal concentration”) in combination with a chemotherapeutic compound (e.g., docetaxel or doxorubicin) to illustrate compounds of the present technology sensitize cancer cell lines to chemotherapy. By way of illustration in an in vivo model, in vivo antitumor efficacy of KH-39 was examined in combination with docetaxel (a first-line chemotherapy for human breast cancer) in a MDA-MB-231 mouse xenograft model. For this, tumor-bearing female athymic mice were provided according to the protocols described earlier in the present disclosure and were randomized into four groups. One group of mice was treated with KH-39 (i.p. 50 mg/kg, 5 times per week), one group with docetaxel (TXT; i.v. at the dosages and time intervals indicated in FIG. 12), one group with a combination of KH-39 and TXT (KH-39 i.p. 50 mg/kg, 5 times per week and TXT i.v. at the dosages and time intervals indicated in FIG. 12), and one group of mice as the vehicle control. FIG. 12 illustrates the results, providing the tumor growth curves for each group.

The next assay relates to PC3 cells. The experiment in a line: mRNA level of HuR target Msi2 after docetaxel treatment. The class given is cell-based. From the text:
FIGS. 1A-F provide the results of studies illustrating RNA-binding protein Hu antigen R (HuR) is involved in chemo/radiation-induced tumor response. […] HuR knock-down by siRNA sensitized cancer cells to X-ray radiation, with an enhancement ratio (ER) of 1.5 versus the negative control (NC) siRNA (FIG. 1F).

T4 sequence (Q15717 2-326 limits assumed): as above
Msi1, sequence (O43347 whole entry, species assumed): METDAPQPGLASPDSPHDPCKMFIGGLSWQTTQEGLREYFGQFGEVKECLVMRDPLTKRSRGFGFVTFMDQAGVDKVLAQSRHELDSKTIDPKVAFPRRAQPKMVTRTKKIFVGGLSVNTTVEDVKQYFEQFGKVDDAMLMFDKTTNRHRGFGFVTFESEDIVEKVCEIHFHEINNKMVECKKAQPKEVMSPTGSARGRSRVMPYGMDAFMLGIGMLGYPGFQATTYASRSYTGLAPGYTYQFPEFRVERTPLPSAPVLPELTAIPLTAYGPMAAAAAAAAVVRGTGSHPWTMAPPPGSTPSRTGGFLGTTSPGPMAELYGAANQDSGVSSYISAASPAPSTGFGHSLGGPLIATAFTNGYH

In the case of `CC(C)(C)c1ccc(C(=O)Nc2ccc3sc(/C=C/C(=O)NO)cc3c2)cc1` [KH-19, (E)-4-(tert-butyl)-N-(2-(3-(hydroxyamino)-3-oxoprop-1-en-1-yl)benzo[b]thiophen-5-yl)benzamide], the Ki in [1] was 150 nM; at Msi1 it was 1970 nM; on Musashi 2 (Msi2), 450 nM; in assay [4] it was 3200 nM. The IC50 turned out to be 2340 nM in assay [2]; 1330 nM in assay [3]; 2220 nM in assay [5]; 2630 nM in assay [6]; 4480 nM in [7]; 5140 nM in [8]. In addition, the “cell death mechanisms: PARP cleavage, LC3 conversion, RIP3 activation” value in assay [9] is “induced cell death through apoptosis, autophagy and necroptosis”. Also, in assay [9], the “protein levels of HuR targets” value is recorded as “decreased the protein levels of HuR targets”. Besides, the MDA-MB-231 cell invasion entry with MDA-MB-231 cells (concentrations indicated in FIG. 8) is reported as “inhibited MDA-MB-231 cell invasion”.

As for `CN(C)c1ccc(C(=O)Nc2ccc3sc(C(=O)NO)cc3c2)cc1` [KH-58, 5-(4-(dimethylamino)benzamido)-N-hydroxybenzo[b]thiophene-2-carboxamide], the Ki was determined as 610 nM in assay [1], 3350 nM on Musashi 2 (Msi2) and 4570 nM in assay [4]. Besides, in assay [3], the IC50 was determined as 1310 nM. Besides, the “IC50 of HuR KO clones versus parental cells and vector control cells” value in [10] is “two to three folds higher IC50 values”. Moreover, the “ARE^Msi1-Biotin mediated pull-down of HuR protein” value in [11] is listed as “block ARE^Msi1-Biotin mediated pull-down of HuR protein”. For the same compound, the “HuR pull-down of target mRNAs” value in assay [12] is listed as “at least partially block HuR pull-down of target mRNAs”. In addition, the MDA-MB-231 cell invasion result in the assay with MDA-MB-231 cells (5 μM) is recorded as “clearly inhibited MDA-MB-231 cell invasion”.

Regarding `CC(=O)O[C@@]12CO[C@@H]1C[C@H](O)[C@@]1(C)C(=O)[C@H](O)C3=C(C)[C@@H](OC(=O)[C@H](O)[C@@H](NC(=O)OC(C)(C)C)c4ccccc4)C[C@@](O)([C@@H](OC(=O)c4ccccc4)[C@H]21)C3(C)C` [docetaxel, reference compound], the “relative tumor sizes versus control group” value in assay [13] is listed as “significantly smaller than those in control group”. For the same compound, in the assay on PC3 cells, the “mRNA levels of HuR target Musashi 2 (Msi2)” value was “increased the mRNA levels of HuR target Musashi 2 (Msi2)”.
